The target of the assay is triosephosphate isomerase (TcTIM WT) (Trypanosoma cruzi, UniProt P52270). In words: coupled enzyme assay. Type of assay: biochemical. As to conditions: read-out: approximately 95% inactivation.

SMILES strings stand for the structures.

Sequence of triosephosphate isomerase (TcTIM WT) (P52270 whole entry): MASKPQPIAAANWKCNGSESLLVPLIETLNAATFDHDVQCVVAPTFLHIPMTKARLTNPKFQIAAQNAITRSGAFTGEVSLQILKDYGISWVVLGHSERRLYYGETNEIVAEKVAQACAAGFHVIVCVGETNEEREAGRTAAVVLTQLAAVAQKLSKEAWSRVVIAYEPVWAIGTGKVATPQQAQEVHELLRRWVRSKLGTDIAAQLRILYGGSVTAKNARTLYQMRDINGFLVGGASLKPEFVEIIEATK

With `COCCCOc1ccnc(C[S+]([O-])c2nc3ccccc3[nH]2)c1C` (stereo not shown) [Rbz, rabeprazole], the IC95 is approximately 75 µM.

These data come from article PMC10351538 (Journal of Enzyme Inhibition and Medicinal Chemistry, 2023).
